ChEMBL document CHEMBL5291721, “A preclinical secondary pharmacology resource illuminates target-adverse drug reaction associations of marketed drugs” (Nat Commun, 2023)

Assays:
[1] = molecular target: T1, Muscarinic acetylcholine receptor M2 (Homo sapiens, UniProt P08172)
T1 sequence (P08172 whole entry): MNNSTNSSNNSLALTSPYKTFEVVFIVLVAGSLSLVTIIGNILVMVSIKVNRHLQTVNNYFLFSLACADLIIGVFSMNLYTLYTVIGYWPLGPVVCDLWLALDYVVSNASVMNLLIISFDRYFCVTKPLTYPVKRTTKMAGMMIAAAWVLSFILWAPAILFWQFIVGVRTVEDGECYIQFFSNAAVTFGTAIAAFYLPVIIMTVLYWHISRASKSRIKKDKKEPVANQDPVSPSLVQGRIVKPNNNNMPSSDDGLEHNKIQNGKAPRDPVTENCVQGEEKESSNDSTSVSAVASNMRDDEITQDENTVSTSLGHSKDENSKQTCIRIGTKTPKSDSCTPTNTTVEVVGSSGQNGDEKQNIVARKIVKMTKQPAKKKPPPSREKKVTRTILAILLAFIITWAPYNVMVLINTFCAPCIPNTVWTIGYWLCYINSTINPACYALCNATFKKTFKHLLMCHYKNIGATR

[2] = molecular target: T2, Oxysterols receptor LXR-alpha (Homo sapiens, UniProt Q13133); type: functional
T2 sequence (Q13133 whole entry): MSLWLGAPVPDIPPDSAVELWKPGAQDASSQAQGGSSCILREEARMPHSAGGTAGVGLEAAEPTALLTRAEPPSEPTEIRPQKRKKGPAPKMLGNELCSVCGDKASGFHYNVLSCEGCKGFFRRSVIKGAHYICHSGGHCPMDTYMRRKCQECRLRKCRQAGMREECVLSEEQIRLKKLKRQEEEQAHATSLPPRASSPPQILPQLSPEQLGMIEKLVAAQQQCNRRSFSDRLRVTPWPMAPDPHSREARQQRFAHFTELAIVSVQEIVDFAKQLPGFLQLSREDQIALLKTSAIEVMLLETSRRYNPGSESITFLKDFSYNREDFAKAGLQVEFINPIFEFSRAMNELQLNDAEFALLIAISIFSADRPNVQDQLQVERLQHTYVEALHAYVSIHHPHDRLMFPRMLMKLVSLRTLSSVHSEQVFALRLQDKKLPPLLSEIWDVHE

[3] = molecular target: T3, Bile acid receptor (Homo sapiens, UniProt Q96RI1); type: functional
T3 sequence (Q96RI1 whole entry): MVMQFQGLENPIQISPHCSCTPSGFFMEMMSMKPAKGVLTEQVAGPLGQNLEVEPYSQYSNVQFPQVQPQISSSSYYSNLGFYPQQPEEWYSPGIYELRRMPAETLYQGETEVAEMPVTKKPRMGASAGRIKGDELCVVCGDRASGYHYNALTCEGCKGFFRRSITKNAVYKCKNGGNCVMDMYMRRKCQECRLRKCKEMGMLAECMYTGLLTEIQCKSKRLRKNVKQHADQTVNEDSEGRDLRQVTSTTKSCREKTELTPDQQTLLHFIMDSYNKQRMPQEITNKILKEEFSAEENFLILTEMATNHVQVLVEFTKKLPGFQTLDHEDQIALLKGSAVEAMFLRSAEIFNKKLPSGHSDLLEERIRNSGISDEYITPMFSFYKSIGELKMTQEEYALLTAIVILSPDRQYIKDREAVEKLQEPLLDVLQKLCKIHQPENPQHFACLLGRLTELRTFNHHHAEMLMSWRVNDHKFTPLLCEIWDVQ

[4] = molecular target: T4, Retinoic acid receptor alpha (Homo sapiens, UniProt P10276); type: functional, cell-based
T4 sequence (P10276 whole entry): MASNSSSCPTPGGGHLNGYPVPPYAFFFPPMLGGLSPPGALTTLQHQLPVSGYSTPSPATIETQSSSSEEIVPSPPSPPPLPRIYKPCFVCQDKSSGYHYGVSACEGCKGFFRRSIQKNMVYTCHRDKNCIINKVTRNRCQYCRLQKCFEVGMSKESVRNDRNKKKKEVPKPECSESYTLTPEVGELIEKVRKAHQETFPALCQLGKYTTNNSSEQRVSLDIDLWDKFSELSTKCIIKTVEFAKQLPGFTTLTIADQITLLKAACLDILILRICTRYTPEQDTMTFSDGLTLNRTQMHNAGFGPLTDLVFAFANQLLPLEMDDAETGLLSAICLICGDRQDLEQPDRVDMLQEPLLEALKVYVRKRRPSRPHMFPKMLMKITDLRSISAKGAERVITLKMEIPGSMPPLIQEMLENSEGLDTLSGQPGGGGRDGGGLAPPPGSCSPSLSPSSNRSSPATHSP

[5] = molecular target: T4, Retinoic acid receptor alpha; type: functional, cell-based; remark: listed apart in the source
[6] = molecular target: T5, Retinoic acid receptor gamma (Homo sapiens, UniProt P13631); type: functional, cell-based
T5 sequence (P13631 whole entry): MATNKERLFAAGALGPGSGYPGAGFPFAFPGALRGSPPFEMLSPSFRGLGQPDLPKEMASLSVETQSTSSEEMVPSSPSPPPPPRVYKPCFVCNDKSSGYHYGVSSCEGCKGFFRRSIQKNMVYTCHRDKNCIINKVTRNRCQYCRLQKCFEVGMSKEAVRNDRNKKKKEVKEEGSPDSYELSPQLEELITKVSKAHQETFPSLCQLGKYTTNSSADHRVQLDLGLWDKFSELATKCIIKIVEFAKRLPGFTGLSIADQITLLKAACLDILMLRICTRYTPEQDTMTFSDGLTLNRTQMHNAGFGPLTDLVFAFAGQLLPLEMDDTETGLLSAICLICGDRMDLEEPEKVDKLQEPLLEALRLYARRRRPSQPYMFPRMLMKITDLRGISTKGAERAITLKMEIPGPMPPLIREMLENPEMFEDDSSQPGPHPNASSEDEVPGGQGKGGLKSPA

[7] = molecular target: T6, Alpha-1A adrenergic receptor (Homo sapiens, UniProt P35348)
T6 sequence (P35348 whole entry): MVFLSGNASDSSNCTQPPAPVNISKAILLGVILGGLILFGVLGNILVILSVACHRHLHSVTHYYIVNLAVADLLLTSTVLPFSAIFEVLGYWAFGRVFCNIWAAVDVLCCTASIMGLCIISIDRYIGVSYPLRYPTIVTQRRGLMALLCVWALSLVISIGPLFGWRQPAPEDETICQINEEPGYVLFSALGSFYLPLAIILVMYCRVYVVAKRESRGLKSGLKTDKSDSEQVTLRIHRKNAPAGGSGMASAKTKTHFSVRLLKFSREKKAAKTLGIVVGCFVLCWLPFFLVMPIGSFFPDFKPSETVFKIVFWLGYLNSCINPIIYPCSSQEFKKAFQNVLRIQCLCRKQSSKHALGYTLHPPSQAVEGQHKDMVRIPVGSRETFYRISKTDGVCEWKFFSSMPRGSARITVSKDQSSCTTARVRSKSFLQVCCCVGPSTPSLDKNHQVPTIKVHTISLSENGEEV
Further: assay procedure not described here.

SMILES	AC50 [1] [µM]	AC50 [2] [µM]	AC50 [3] [µM]	AC50 [4] [µM]	AC50 [5] [µM]	AC50 [6] [µM]	AC50 [7] [µM]
Cc1cn([C@H]2C=C[C@@H](CO)O2)c(=O)[nH]c1=O [STAVUDINE]	> 30						
CN1C(C(=O)Nc2ccccn2)=C(O)c2sc(Cl)cc2S1(=O)=O [LORNOXICAM]		> 30	> 30	> 30	> 30	> 30	
CCc1oc2ccccc2c1C(=O)c1cc(I)c(O)c(I)c1 [BENZIODARONE]							> 30
Cc1c(C(=O)NN2CCCCC2)nn(-c2ccc(Cl)cc2Cl)c1-c1ccc(Cl)cc1 [RIMONABANT]		> 30	> 30	> 30	> 30	> 30	
CC[C@H]1OC(=O)[C@H](C)[C@@H](O[C@H]2C[C@@](C)(OC)[C@@H](O)[C@H](C)O2)[C@H](C)[C@@H](O[C@@H]2O[C@H](C)C[C@H](N(C)C)[C@H]2O)[C@](C)(O)C[C@@H](C)CN(C)[C@H](C)[C@@H](O)[C@]1(C)O [AZITHROMYCIN]							> 30
O=C(OCC(O)CO)c1ccccc1Nc1ccnc2cc(Cl)ccc12 (centres undefined) [GLAFENINE]	> 30						
